# Results as given in US20110212997A1, “PIPERIDINE-4-ACETAMIDE DERIVATIVES AND THEIR USE AS MONOAMINE NEUROTRANSMITTER RE-UPTAKE INHIBITORS” (NEUROSEARCH A/S, priority 2008, published 2011).
# Structures can show the parent of a compound that is named as a salt.
row,melting point,SMILES
1,62 to 64 °C,"CCN(C(=O)CC1CCNCC1)c1ccc(Cl)c(Cl)c1Cl (as salt: fumaric acid salt) [Compound C10, N-Ethyl-2-piperidin-4-yl-N-(2,3,4-trichloro-phenyl)-acetamide]"
2,58 to 60 °C,"CCN(C(=O)CC1CCNCC1)c1ccc(Br)c(Br)c1 (as salt: fumaric acid salt) [Compound C11, N-(3,4-Dibromo-phenyl)-N-ethyl-2-piperidin-4-yl-acetamide]"
3,55 to 58 °C,"CCCN(C(=O)CC1CCNCC1)c1ccc(Cl)c(Cl)c1 (as salt: fumaric acid salt) [Compound C12, N-(3,4-Dichloro-phenyl)-2-piperidin-4-yl-N-propyl-acetamide]"
4,141 to 143 °C,"CCN(C(=O)CC1CCNCC1)c1ccc(Cl)c(Br)c1 (as salt: fumaric acid salt) [Compound C13, N-(3-Bromo-4-chloro-phenyl)-N-ethyl-2-piperidin-4-yl-acetamide]"
5,159 to 161 °C,"CCN(C(=O)CC1CCNCC1)c1ccc(Br)c(Cl)c1 (as salt: fumaric acid salt) [Compound D4, N-(4-Bromo-3-chloro-phenyl)-N-ethyl-2-piperidin-4-yl-acetamide]"
6,112 to 114 °C,"CCN(C(=O)CC1CCNCC1)c1ccc(Cl)cc1Cl (as salt: fumaric acid salt) [Compound D5, N-(2,4-Dichloro-phenyl)-N-ethyl-2-piperidin-4-yl-acetamide]"
7,51 to 53 °C,"CCN(C(=O)CC1CCN(C)CC1)c1cccc(Cl)c1Cl (as salt: fumaric acid salt) [Compound D8, N-(2,3-Dichloro-phenyl)-N-ethyl-2-(1-methyl-piperidin-4-yl)-acetamide]"
8,175 to 177 °C,"CCN(C(=O)CC1CCN(C)CC1)c1ccc(Cl)cc1Cl (as salt: fumaric acid salt) [Compound D14, N-(2,4-Dichloro-phenyl)-N-ethyl-2-(1-methyl-piperidin-4-yl)-acetamide]"
9,181 to 183 °C,"CCN(C(=O)CC1CCN(C)CC1)c1ccc(Cl)c(Cl)c1Cl (as salt: fumaric acid salt) [Compound D18, N-Ethyl-2-(1-methyl-piperidin-4-yl)-N-(2,3,4-trichloro-phenyl)-acetamide]"

# The remaining lines, values behind:
row,SMILES,melting point
1,"CCN(C(=O)CC1CCN(C)CC1)c1cccc2ccccc12 (as salt: fumaric acid salt) [Compound D3, N-Ethyl-2-(1-methyl-piperidin-4-yl)-N-naphthalen-1-yl-acetamide]",63 to 66 °C
2,"CN1CCC(CC(=O)Nc2ccc(Cl)c(Cl)c2)CC1 (as salt: fumaric acid salt) [Compound D6, N-(3,4-Dichloro-phenyl)-2-(1-methyl-piperidin-4-yl)-acetamide]",180 to 183 °C
3,"CN1CCC(CC(=O)N(C)c2ccc(Cl)c(Cl)c2)CC1 (as salt: fumaric acid salt) [Compound D12, N-(3,4-Dichloro-phenyl)-N-methyl-2-(1-methyl-piperidin-4-yl)-acetamide]",57 to 59 °C
4,"CCN(C(=O)CC1CCN(C)CC1)c1c(Cl)cccc1Cl (as salt: fumaric acid salt) [Compound D16, N-(2,6-Dichloro-phenyl)-N-ethyl-2-(1-methyl-piperidin-4-yl)-acetamide]",167 to 169 °C
5,"CCCN(C(=O)CC1CCN(C)CC1)c1ccc(Cl)c(Cl)c1 (as salt: fumaric acid salt) [Compound D20, N-(3,4-Dichloro-phenyl)-2-(1-methyl-piperidin-4-yl)-N-propyl-acetamide]",144 to 146 °C
6,"CCN(C(=O)CC1CCN(C)CC1)c1ccc(Cl)c(Cl)c1 (as salt: hydrochloric acid salt) [Compound D1, N-(3,4-Dichloro-phenyl)-N-ethyl-2-(1-methyl-piperidin-4-yl)-acetamide]",153 to 155 °C
